Laboratory results reported in patent US20190282492A1, “COSMETIC COMPOSITIONS FOR SKIN REPARATION” (Natura Cosméticos S.A., priority 2016, published 2019).

Legend:
Assay type in all cases: cell-based
[1] = Cell proliferation, Neutral Red detection method; settings: compared to the untreated control after 48 hours of treatment
Description: (§1) In another aspect, this invention also refers to an in vitro method of assessing skin repair, that is suitable for studying a variety of active ingredients, comprised of the following steps: • Step 1—Initial Indication: quantification of the FGF-2 growth factor through the flow cytometry technique; • Step 2—Inflammation: quantification of inflammatory cytokines (IL-1B, IL-6, IL-8, IL-10, IL-12 p70) through the flow cytometry technique; • Step 3—Cell proliferation and migration: • Cell proliferation through the Neutral Red detection method; • Cell migration through the ECIS and Scratch method; • Step 4—Remodeling and Resolution • Quantification of matrix metalloproteinase MMP-13 through the Enzyme-Linked Immunosorbent Assay (ELISA) technique; • Determination of collagenase/gelatinase enzyme activity (MMP-1 and MMP-3) and elastase (MMP-1 2) through the enzyme inhibition assay.
(§2) All the tests were conducted in triplicate, with experiments repeated at least twice, using negative control groups (no stimulation with active ingredients) and positive control groups (stimulated with molecules modulating the marker to be assayed). […]
as §1, with “As a result,” for “In another aspect,”, “project encompassed the following” for “invention also refers to an”, “assays:” for “method of assessing skin repair, that is suitable for studying a variety of active ingredients, comprised of the following steps:”, “FGF2” for “FGF-2”, “assay. […]” for “assay.”

MMP-13 = experiment: Quantification of MMP-13 by ELISA; settings: compared to the untreated control
Description: as §1, §2
as §1, with “As a result,” for “In another aspect,”, “project encompassed the following” for “invention also refers to an”, “assays:” for “method of assessing skin repair, that is suitable for studying a variety of active ingredients, comprised of the following steps:”, “FGF2” for “FGF-2”

FGF-2 = experiment: Quantification of FGF-2 growth factor by flow cytometry; settings: in comparison to the negative control
Description: as §1, §2

IL-8 = experiment: Quantification of inflammatory cytokines by flow cytometry (IL-8); settings: in terms of negative control
Description: as §1, §2

IL-10 = experiment: Quantification of inflammatory cytokines by flow cytometry (IL-10); settings: in terms of negative control
Description: as §1, §2

NC(=O)NC1NC(=O)NC1=O (stereo not drawn) [allantoin]
increase in cell proliferation (in words) [1]: did not present significant increases | MMP-13 quantification, increase (MMP-13): threefold increases

madecassoside
FGF-2 increase (FGF-2): up to 115 times | IL-8 increase (IL-8): twofold increase | IL-10 increase (IL-10): 2.3 times | increase in cell proliferation (in words) [1]: did not present significant increases | MMP-13 quantification, increase (MMP-13): threefold increases

B1: papain (protein, UniProt P00784 134-345, looked up)
Papain: IPEYVDWRQKGAVTPVKNQGSCGSCWAFSAVVTIEGIIKIRTGNLNEYSEQELLDCDRRSYGCNGGYPWSALQLVAQYGIHYRNTYPYEGVQRYCRSREKGPYAAKTDGVRQVQPYNEGALLYSIANQPVSVVLEAAGKDFQLYRGGIFVGPCGNKVDHAVAAVGYGPNYILIKNSWGTGWGENGYIRIKRGTGNSYGVCGLYTSSFYPVKN
notes: standard (enzyme)
increase in cell proliferation (in words) [1]: did not present significant increases | MMP-13 quantification, increase (MMP-13): threefold increases
